According to patent US20210212968A1, “COMBINATIONS COMPRISING AN SSAO/VAP-1 INHIBITOR AND A SGLT2 INHIBITOR, USES THEREOF” (Boehringer Ingelheim International GmbH, priority 2016, published 2021):
Each block holds one molecule with its values, some of them ahead of it.

Tests used:
[1] = metformin on its own, in the diabetic; cited from earlier work
[2] = tested on: SGLT2 versus SGLT1; conditions: cited from earlier work
[3] = patients with type 2 diabetes mellitus at high risk for cardiovascular events; cited from earlier work
[4] = biological target: T1, human diamine oxidase (Homo sapiens, UniProt P19801); assay: inhibition of human diamine oxidase; assay type: biochemical
T1 sequence (P19801 20-751): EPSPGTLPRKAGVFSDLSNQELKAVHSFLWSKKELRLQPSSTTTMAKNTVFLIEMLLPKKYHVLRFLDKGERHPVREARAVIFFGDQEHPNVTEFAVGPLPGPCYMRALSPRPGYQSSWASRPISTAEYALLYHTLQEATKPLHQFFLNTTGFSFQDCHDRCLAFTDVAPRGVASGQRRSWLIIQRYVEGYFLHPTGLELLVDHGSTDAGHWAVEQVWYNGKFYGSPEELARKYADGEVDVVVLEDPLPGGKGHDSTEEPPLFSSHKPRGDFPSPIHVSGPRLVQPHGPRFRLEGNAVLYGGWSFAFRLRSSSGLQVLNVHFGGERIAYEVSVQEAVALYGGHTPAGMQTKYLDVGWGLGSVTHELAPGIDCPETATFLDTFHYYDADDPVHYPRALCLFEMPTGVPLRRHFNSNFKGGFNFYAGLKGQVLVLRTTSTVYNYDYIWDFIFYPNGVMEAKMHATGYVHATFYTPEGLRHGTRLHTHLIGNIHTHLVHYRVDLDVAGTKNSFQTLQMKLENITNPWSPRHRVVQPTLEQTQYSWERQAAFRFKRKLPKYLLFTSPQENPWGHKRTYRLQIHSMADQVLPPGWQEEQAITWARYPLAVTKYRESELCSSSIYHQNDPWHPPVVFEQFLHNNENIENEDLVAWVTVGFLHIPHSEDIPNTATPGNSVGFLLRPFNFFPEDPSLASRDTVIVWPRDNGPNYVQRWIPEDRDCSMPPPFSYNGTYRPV

Compound: CN(C)C(=N)N=C(N)N [metformin]
average improvement in the HbA1c value [1]: 1.0-1.5%

Compound: OC[C@H]1O[C@@H](c2ccc(Cl)c(Cc3ccc(O[C@H]4CCOC4)cc3)c2)[C@H](O)[C@@H](O)[C@@H]1O [empagliflozin]
selectivity SGLT2 versus SGLT1 [2]: high selectivity
rates of the primary composite cardiovascular outcome and of death from any cause [3]: significantly lower rates

inhibitory activity against human diamine oxidase [4]: low inhibitory activity
Compound: CC(C)(C)NC(=O)c1ccc(OC/C(=C/F)CN)cc1 [Compound 23, (E)-4-(2-(Aminomethyl)-3-fluoroallyloxy)-N-tert-butylbenzamide]
